These results are taken from patent US8344153B2, “Inhibitors of phosphatidylinositol 3-kinase” (Vertex Pharmaceuticals Incorporated, priority 2009, dated 2013).

A value given as a limit tells only on which side of the number the result lay.

This assay concerns the target PI3K-γ (Homo sapiens, UniProt P48736). Nature of the assay: PI3K Inhibition Assay (33P-ATP, PI(4,5)P2 substrate, filter plate scintillation counting). The class given is biochemical. Conditions: competitive tight binding Ki fit; 3 μM ATP, 30 μM PI(4,5)P2, 2 nM final enzyme, 30 min at 25° C.; read-out: Ki for the inhibition of PI3Ky. How it is done: One test well also contained 1.5 μL of DMSO with no compound. […] To initiate the reaction, 50 μL of ATP Mix [20 mM MgCl2, 6 μM ATP (100 μCi/μmole ^33P-ATP)] was added each well, followed by incubating the wells for 30 min. at 25° C. Final concentrations in each well were 50 mM HEPES 7.5, 10 mM MgCl2, 25 mM NaCl, 5 mM DTT, 0.1 mg/mL BSA, 30 μM PI(4,5)P2, 3 μM ATP, and the PI3K isoform of interest (see Table 3). Final compound concentrations in each well ranged from 10 μM to 1 nM.
After incubation, the reactions in each well were quenched by addition of 50 μL of stop solution [30% TCA/Water, 10 mM ATP]. […] 50 μL of scintillation fluid was added to each well and the plate read on a Perkin-Elmer TopCount™ NXT liquid scintillation counter to obtain ^33P-counts representing inhibition values.

PI3K-γ, sequence (P48736 whole entry, species assumed, canonical isoform): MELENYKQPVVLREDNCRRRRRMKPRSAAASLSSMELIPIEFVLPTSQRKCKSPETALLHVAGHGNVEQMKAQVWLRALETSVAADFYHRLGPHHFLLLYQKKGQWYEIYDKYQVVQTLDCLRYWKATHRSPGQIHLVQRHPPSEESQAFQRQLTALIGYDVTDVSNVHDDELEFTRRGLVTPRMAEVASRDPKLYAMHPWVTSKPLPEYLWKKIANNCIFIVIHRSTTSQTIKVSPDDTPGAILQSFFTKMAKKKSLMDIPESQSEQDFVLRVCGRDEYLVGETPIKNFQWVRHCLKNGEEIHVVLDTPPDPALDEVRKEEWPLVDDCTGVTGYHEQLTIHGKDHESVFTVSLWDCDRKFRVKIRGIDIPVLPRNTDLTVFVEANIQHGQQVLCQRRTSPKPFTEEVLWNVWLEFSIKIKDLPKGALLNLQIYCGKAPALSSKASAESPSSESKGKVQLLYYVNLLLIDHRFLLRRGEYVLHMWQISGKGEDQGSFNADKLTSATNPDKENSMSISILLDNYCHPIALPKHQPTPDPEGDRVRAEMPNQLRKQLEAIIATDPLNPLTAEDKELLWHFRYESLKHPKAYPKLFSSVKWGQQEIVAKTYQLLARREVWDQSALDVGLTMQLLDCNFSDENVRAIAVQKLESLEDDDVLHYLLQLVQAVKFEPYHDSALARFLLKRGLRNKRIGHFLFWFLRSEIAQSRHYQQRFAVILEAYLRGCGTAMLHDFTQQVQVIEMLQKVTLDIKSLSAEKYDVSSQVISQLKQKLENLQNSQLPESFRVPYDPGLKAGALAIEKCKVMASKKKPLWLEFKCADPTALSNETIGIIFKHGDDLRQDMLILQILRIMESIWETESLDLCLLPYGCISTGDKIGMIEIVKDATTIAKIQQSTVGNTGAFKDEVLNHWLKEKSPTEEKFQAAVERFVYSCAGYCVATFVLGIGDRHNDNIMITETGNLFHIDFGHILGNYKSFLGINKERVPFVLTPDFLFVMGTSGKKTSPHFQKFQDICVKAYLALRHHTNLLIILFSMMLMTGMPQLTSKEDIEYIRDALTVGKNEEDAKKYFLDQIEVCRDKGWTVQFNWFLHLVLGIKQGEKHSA

With `CCOCCNC(=O)Nc1nc(C)c(C#Cc2ccncc2)s1` [Compound 26], the inhibition constant (Ki) (as a rule, the equilibrium dissociation constant of an inhibitor or competing ligand from its target) was less than 50 nM.
